Source: PubChem BioAssay AID2060618 (Molecular Pharmacology Branch, DTP, NCI, 2025)

Test system: 454973-116-R2-J3-PDC spheroids, percent test/control viability
Assay: Anticancer human tumor 454973-116-R2-J3-PDC patient-derived pancreatic carcinoma cell line growth inhibition [CLK]
Conditions: spheroids with HUVEC and MSC; for IC50: curve of first compound; for viability, T/C: stronger effect = lower value
In short: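 Patient-derived tumor cells grown as complex spheroids with HUVEC endothelial cells and mesenchymal stem cells, treated with drug combinations. Concentrations descend in half-log steps from near clinical Cmax, or from 10 microM if Cmax unknown.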

[1] = second compound 0.0316 µM, first compound 0.00316 µM
[2] = second compound 0.0316 µM, first compound 0.01 µM
[3] = second compound 0.0316 µM, first compound 0.0316 µM
[4] = second compound 0.0316 µM, first compound 0.1 µM
[5] = second compound 0.0316 µM, first compound 0.316 µM
[6] = second compound 0.0316 µM, first compound 1 µM
[7] = second compound 0.1 µM, first compound 0.00316 µM
[8] = second compound 0.1 µM, first compound 0.01 µM
[9] = second compound 0.1 µM, first compound 0.0316 µM
[10] = second compound 0.1 µM, first compound 0.1 µM
[11] = second compound 0.1 µM, first compound 0.316 µM
[12] = second compound 0.1 µM, first compound 1 µM
[13] = second compound 0.316 µM, first compound 0.00316 µM
[14] = second compound 0.316 µM, first compound 0.01 µM
[15] = second compound 0.316 µM, first compound 0.0316 µM
[16] = second compound 0.316 µM, first compound 0.1 µM
[17] = second compound 0.316 µM, first compound 0.316 µM
[18] = second compound 0.316 µM, first compound 1 µM
[19] = second compound 1 µM, first compound 0.00316 µM
[20] = second compound 1 µM, first compound 0.01 µM
[21] = second compound 1 µM, first compound 0.0316 µM
[22] = second compound 1 µM, first compound 0.1 µM
[23] = second compound 1 µM, first compound 0.316 µM
[24] = second compound 1 µM, first compound 1 µM
[25] = second compound 3.16 µM, first compound 0.00316 µM
[26] = second compound 3.16 µM, first compound 0.01 µM
[27] = second compound 3.16 µM, first compound 0.0316 µM
[28] = second compound 3.16 µM, first compound 0.1 µM
[29] = second compound 3.16 µM, first compound 0.316 µM
[30] = second compound 3.16 µM, first compound 1 µM
[31] = second compound 10 µM, first compound 0.00316 µM
[32] = second compound 10 µM, first compound 0.01 µM
[33] = second compound 10 µM, first compound 0.0316 µM
[34] = second compound 10 µM, first compound 0.1 µM
[35] = second compound 10 µM, first compound 0.316 µM
[36] = second compound 10 µM, first compound 1 µM
[37] = second compound 0.0316 µM, first compound 3.16 µM
[38] = second compound 0.0316 µM, first compound 10 µM
[39] = second compound 0.1 µM, first compound 3.16 µM
[40] = second compound 0.1 µM, first compound 10 µM
[41] = second compound 0.316 µM, first compound 3.16 µM
[42] = second compound 0.316 µM, first compound 10 µM
[43] = second compound 1 µM, first compound 3.16 µM
[44] = second compound 1 µM, first compound 10 µM
[45] = second compound 3.16 µM, first compound 3.16 µM
[46] = second compound 3.16 µM, first compound 10 µM
[47] = second compound 10 µM, first compound 3.16 µM
[48] = second compound 10 µM, first compound 10 µM
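Further: spheroids exposed to compounds for 7 days before readout.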

CCc1c2c(nc3ccc(O)cc13)-c1cc3c(c(=O)n1C2)COC(=O)[C@]3(O)CC + CN1CCN(c2cc(C(=O)Nc3cc4cc(-c5cnn(C)c5)ccc4cn3)ccn2)CC1
IC50 (second compound 0.0316 µM): < 3.16 nM | IC50 (second compound 0.1 µM): < 3.16 nM | IC50 (second compound 0.316 µM): < 3.16 nM | IC50 (second compound 1 µM): < 3.16 nM | IC50 (second compound 3.16 µM): < 3.16 nM | IC50 (second compound 10 µM): < 3.16 nM | viability, T/C [1]: 26.9% | viability, T/C [2]: 17.1% | viability, T/C [3]: 12.6% | viability, T/C [4]: 6.38% | viability, T/C [5]: 3.17% | viability, T/C [6]: 0.71% | viability, T/C [7]: 21.8% | viability, T/C [8]: 21.1% | viability, T/C [9]: 9.73% | viability, T/C [10]: 3.23% | viability, T/C [11]: 1.75% | viability, T/C [12]: 0.31% | viability, T/C [13]: 2.15% | viability, T/C [14]: 3.91% | viability, T/C [15]: 2.2% | viability, T/C [16]: 0.98% | viability, T/C [17]: 0.1% | viability, T/C [18]: 0.1% | viability, T/C [19]: 0.08% | viability, T/C [20]: 0.1% | viability, T/C [21]: 0.1% | viability, T/C [22]: 0.05% | viability, T/C [23]: 0.07% | viability, T/C [24]: 0.09% | viability, T/C [25]: 0.1% | viability, T/C [26]: 0.13% | viability, T/C [27]: 0.14% | viability, T/C [28]: 0.11% | viability, T/C [29]: 0.16% | viability, T/C [30]: 0.15% | viability, T/C [31]: 0.07% | viability, T/C [32]: 0.12% | viability, T/C [33]: 0.17% | viability, T/C [34]: 0.18% | viability, T/C [35]: 0.21% | viability, T/C [36]: 0.18%

Cn1ncnc1[C@H]1c2n[nH]c(=O)c3cc(F)cc(c23)N[C@@H]1c1ccc(F)cc1 + CN1CCN(c2cc(C(=O)Nc3cc4cc(-c5cnn(C)c5)ccc4cn3)ccn2)CC1
IC50 (second compound 0.0316 µM): > 100 nM | IC50 (second compound 0.1 µM): > 100 nM | IC50 (second compound 0.316 µM): < 0.316 nM | IC50 (second compound 1 µM): < 0.316 nM | IC50 (second compound 3.16 µM): < 0.316 nM | IC50 (second compound 10 µM): < 0.316 nM | viability, T/C (second compound 0.0316 µM, first compound 0.000316 µM): 93.9% | viability, T/C (second compound 0.0316 µM, first compound 0.001 µM): 99% | viability, T/C [1]: 90.5% | viability, T/C [2]: 92.9% | viability, T/C [3]: 91.2% | viability, T/C [4]: 85% | viability, T/C (second compound 0.1 µM, first compound 0.000316 µM): 75.4% | viability, T/C (second compound 0.1 µM, first compound 0.001 µM): 75% | viability, T/C [7]: 83.2% | viability, T/C [8]: 71.3% | viability, T/C [9]: 59.1% | viability, T/C [10]: 50.1% | viability, T/C (second compound 0.316 µM, first compound 0.000316 µM): 1.91% | viability, T/C (second compound 0.316 µM, first compound 0.001 µM): 2.28% | viability, T/C [13]: 3.23% | viability, T/C [14]: 4.91% | viability, T/C [15]: 2.64% | viability, T/C [16]: 2.84% | viability, T/C (second compound 1 µM, first compound 0.000316 µM): 0.1% | viability, T/C (second compound 1 µM, first compound 0.001 µM): 1.11% | viability, T/C [19]: 0.09% | viability, T/C [20]: 0.08% | viability, T/C [21]: 0.09% | viability, T/C [22]: 0.1% | viability, T/C (second compound 3.16 µM, first compound 0.000316 µM): 0.09% | viability, T/C (second compound 3.16 µM, first compound 0.001 µM): 0.12% | viability, T/C [25]: 0.1% | viability, T/C [26]: 1.05% | viability, T/C [27]: 1.67% | viability, T/C [28]: 0.12% | viability, T/C (second compound 10 µM, first compound 0.000316 µM): 0.11% | viability, T/C (second compound 10 µM, first compound 0.001 µM): 0.16% | viability, T/C [31]: 0.17% | viability, T/C [32]: 0.29% | viability, T/C [33]: 0.12% | viability, T/C [34]: 0.14%

Nc1ccn(C2OC(CO)C(O)C2(F)F)c(=O)n1 (stereo not drawn) + CN1CCN(c2cc(C(=O)Nc3cc4cc(-c5cnn(C)c5)ccc4cn3)ccn2)CC1
IC50 (second compound 0.0316 µM): < 31.6 nM | IC50 (second compound 0.1 µM): < 31.6 nM | IC50 (second compound 0.316 µM): < 31.6 nM | IC50 (second compound 1 µM): < 31.6 nM | IC50 (second compound 3.16 µM): < 31.6 nM | IC50 (second compound 10 µM): < 31.6 nM | viability, T/C [3]: 10.3% | viability, T/C [4]: 9.2% | viability, T/C [5]: 11.2% | viability, T/C [6]: 10.4% | viability, T/C [37]: 11% | viability, T/C [38]: 12.3% | viability, T/C [9]: 10.3% | viability, T/C [10]: 10.5% | viability, T/C [11]: 8.35% | viability, T/C [12]: 11.8% | viability, T/C [39]: 12.8% | viability, T/C [40]: 10.7% | viability, T/C [15]: 1.34% | viability, T/C [16]: 3.55% | viability, T/C [17]: 1.4% | viability, T/C [18]: 1.47% | viability, T/C [41]: 1.66% | viability, T/C [42]: 1.1% | viability, T/C [21]: 1.36% | viability, T/C [22]: 0.1% | viability, T/C [23]: 0.67% | viability, T/C [24]: 0.06% | viability, T/C [43]: 0.07% | viability, T/C [44]: 1.87% | viability, T/C [27]: 0.13% | viability, T/C [28]: 0.16% | viability, T/C [29]: 0.18% | viability, T/C [30]: 0.15% | viability, T/C [45]: 0.15% | viability, T/C [46]: 0.15% | viability, T/C [33]: 0.16% | viability, T/C [34]: 0.66% | viability, T/C [35]: 0.22% | viability, T/C [36]: 1.09% | viability, T/C [47]: 0.2% | viability, T/C [48]: 1.04%

O=c1[nH]cc(F)c(=O)[nH]1 + CN1CCN(c2cc(C(=O)Nc3cc4cc(-c5cnn(C)c5)ccc4cn3)ccn2)CC1
IC50 (second compound 0.0316 µM): 1940 nM | IC50 (second compound 0.1 µM): 1330 nM | IC50 (second compound 0.316 µM): < 31.6 nM | IC50 (second compound 1 µM): < 31.6 nM | IC50 (second compound 3.16 µM): < 31.6 nM | IC50 (second compound 10 µM): < 31.6 nM | viability, T/C [3]: 93% | viability, T/C [4]: 102% | viability, T/C [5]: 95.2% | viability, T/C [6]: 71.3% | viability, T/C [37]: 30.6% | viability, T/C [38]: 37.9% | viability, T/C [9]: 73% | viability, T/C [10]: 86.7% | viability, T/C [11]: 73.5% | viability, T/C [12]: 57.1% | viability, T/C [39]: 27.7% | viability, T/C [40]: 30.2% | viability, T/C [15]: 2.26% | viability, T/C [16]: 2.2% | viability, T/C [17]: 3.74% | viability, T/C [18]: 2.11% | viability, T/C [41]: 3.66% | viability, T/C [42]: 2.07% | viability, T/C [21]: 0.1% | viability, T/C [22]: 0.11% | viability, T/C [23]: 0.74% | viability, T/C [24]: 0.06% | viability, T/C [43]: 0.05% | viability, T/C [44]: 0.08% | viability, T/C [27]: 0.14% | viability, T/C [28]: 0.39% | viability, T/C [29]: 0.44% | viability, T/C [30]: 0.1% | viability, T/C [45]: 0.14% | viability, T/C [46]: 0.59% | viability, T/C [33]: 0.05% | viability, T/C [34]: 0.14% | viability, T/C [35]: 0.14% | viability, T/C [36]: 0.17% | viability, T/C [47]: 0.16% | viability, T/C [48]: 0.17%
